# In the supplement of paper PMC10307832:
# Tests used:
# Experiment in all cases: relative viability (nuclei count vs DMSO), 5 days (fraction); higher = more cells survive
# [1] = compound: CN(c1ncccc1CNc1nc(Nc2ccc3c(c2)CC(=O)N3)ncc1C(F)(F)F)S(C)(=O)=O + COc1cc2c(Oc3ccc(NC(=O)C4(C(=O)Nc5ccc(F)cc5)CC4)cc3F)ccnc2cc1OCCCN1CCOCC1 [Foretinib] (partner 0.25 µM)
# Procedure, shortened: (§1)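 Relative viability equals treated-well nuclei counts divided by vehicle-well nuclei counts. Counts came from 4× images of lung cancer cell lines grown in 1536-well plates for 5 days after pin-tool dosing on the day after seeding. Dosing used one drug alone or a fixed anchor-drug dose plus five library-drug doses (not always all listed) in √10 steps, and values are medians of duplicate plates.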
# [2] = compound: CN(c1ncccc1CNc1nc(Nc2ccc3c(c2)CC(=O)N3)ncc1C(F)(F)F)S(C)(=O)=O + O=C(CCCCCCC(=O)Nc1ccccc1)NO [Vorinostat] (partner 1 µM)
# Procedure, shortened: as §1
# [3] = compound: CN(c1ncccc1CNc1nc(Nc2ccc3c(c2)CC(=O)N3)ncc1C(F)(F)F)S(C)(=O)=O + NC(=O)Nc1cc(-c2cccc(F)c2)sc1C(=O)N[C@H]1CCCNC1 [AZD7762] (partner 0.2 µM)
# Procedure, shortened: as §1
# [4] = compound: CN(c1ncccc1CNc1nc(Nc2ccc3c(c2)CC(=O)N3)ncc1C(F)(F)F)S(C)(=O)=O + CS(=O)(=O)N1CCN(Cc2cc3nc(-c4cccc5[nH]ncc45)nc(N4CCOCC4)c3s2)CC1 [Pictilisib] (partner 1 µM)
# Procedure, shortened: as §1
Cell Line,relative viability ([1]; first compound 0.01 µM),relative viability ([1]; first compound 0.03162 µM),relative viability ([1]; first compound 0.1 µM),relative viability ([1]; first compound 0.3162 µM),relative viability ([1]; first compound 1 µM),relative viability ([2]; first compound 0.01 µM),relative viability ([2]; first compound 0.03162 µM),relative viability ([2]; first compound 0.1 µM),relative viability ([2]; first compound 0.3162 µM),relative viability ([2]; first compound 1 µM),relative viability ([3]; first compound 0.01 µM),relative viability ([3]; first compound 0.03162 µM),relative viability ([3]; first compound 0.1 µM),relative viability ([3]; first compound 0.3162 µM),relative viability ([3]; first compound 1 µM),relative viability ([4]; first compound 0.01 µM),relative viability ([4]; first compound 0.03162 µM),relative viability ([4]; first compound 0.1 µM),relative viability ([4]; first compound 0.3162 µM),relative viability ([4]; first compound 1 µM)
NCI-H441,0.974,1.14,0.999,1.17,0.761,0.933,0.978,0.824,0.792,0.644,1.07,1.11,1.04,1.18,1.22,0.554,0.516,0.527,0.527,0.508
NCI-H1793,0.58,0.641,0.667,0.449,0.523,0.866,0.724,0.785,0.699,0.713,0.407,0.541,0.543,0.53,0.452,0.285,0.393,0.208,0.319,0.265
NCI-H23,0.914,1.08,1.08,1.06,0.861,0.659,0.594,0.633,0.714,0.662,0.245,0.276,0.243,0.289,0.382,0.554,0.492,0.564,0.495,0.441
HARA,1.06,0.864,0.905,0.871,0.664,0.569,0.573,0.55,0.516,0.432,0.49,0.351,0.368,0.355,0.455,0.305,0.556,0.365,0.544,0.377
NCI-H1792,–,–,–,–,–,–,–,–,–,–,0.721,0.822,0.674,0.722,0.755,0.263,0.281,0.323,0.306,0.332
NCI-H1703,0.37,0.3,0.36,0.332,0.349,–,–,–,–,–,0.131,0.18,0.124,0.127,0.118,0.266,0.243,0.248,0.229,0.235
NCI-H1648,–,–,–,–,–,0.336,0.493,0.471,0.292,0.413,0.66,0.588,0.535,0.551,0.677,–,–,–,–,–
CAL-12T,1.32,1.2,1.1,1.1,0.838,0.91,0.854,0.726,0.767,0.708,0.677,0.603,0.559,0.647,0.633,0.43,0.305,0.28,0.318,0.498
NCI-H727,0.836,0.873,0.932,1,0.891,1.26,1.29,1.23,1.08,1.34,0.595,0.555,0.447,0.842,0.69,0.459,0.269,0.393,0.31,0.344
NCI-H2085,0.878,0.925,0.906,0.824,0.748,0.816,0.837,0.761,0.734,0.691,1,1.02,1.02,1.07,1.03,0.449,0.49,0.624,0.469,0.515
NCI-H1395,0.985,1.12,0.952,0.849,0.954,0.792,0.698,0.725,0.659,0.898,0.41,0.368,0.421,0.398,0.424,0.569,0.655,0.605,0.668,0.661
SW 900,0.796,0.964,0.872,0.894,0.566,0.535,0.511,0.594,0.661,0.562,0.579,0.688,0.784,0.594,0.733,–,–,–,–,–
NCI-H460,1.1,1.09,0.892,1.02,0.972,0.696,0.757,0.615,0.76,0.736,0.714,0.824,0.643,0.661,0.684,0.338,0.425,0.437,0.367,0.418
A549,0.995,0.948,0.958,0.945,0.933,–,–,–,–,–,–,–,–,–,–,0.474,0.63,0.569,0.452,0.409
IA-LM,1.25,1.17,0.917,1.27,0.874,0.991,1.12,0.801,0.859,0.86,–,–,–,–,–,0.348,0.292,0.309,0.32,0.276
EKVX,0.815,0.924,1.15,0.741,0.802,0.638,0.746,0.638,0.627,0.494,0.723,0.676,0.747,0.838,0.748,0.462,0.422,0.418,0.375,0.431
ChaGo-K-1,0.968,0.894,0.946,0.935,0.782,0.756,0.708,0.778,0.816,0.738,0.932,0.856,0.873,0.917,0.853,0.753,0.518,0.973,–,1.15
NCI-H1755,0.88,0.983,0.9,0.832,0.833,0.79,0.756,0.787,0.75,0.66,0.585,0.398,0.488,0.502,0.437,0.436,0.417,0.426,0.477,0.451
